In the test the test system is THP-1 Lucia ISG cells. Description: ISG-LUC activation assay (ISRE-luciferase assay). The conditions noted are these: Homo sapiens, THP1-Lucia ISG, activity score based upon potency and efficacy data, 24 hours. In kind it is cell-based. From the text: We have established a robust platform for identifying non-nucleotide small molecule STING agonists. This has been established using a primary assay involving a human THP-1 cell line carrying an IRF-inducible reporter with 5 copies of the IFN signaling response element. Counter screens, involving alternative reporter constructs, rodent cell-based assays, as well as cGAS and STING knock-out cell lines, are used to eliminate luciferase artifacts and ensure human-rodent cross species reactivity, as well as pathway selectivity. Biochemical assays, involving cGAS enzymatic activity and STING protein binding assays, are used to identify the specific target of identified hits.
Tissue culture. Wild-type (cat. no. thpl-isg) and STING KO (cat. no. thpd-kostg) THP-1-Lucia ISG cells were purchased from Invivogen and maintained in growth media consisting of RPMI 1640, 2 mM L-glutamine, 25 mM HEPES, 10% heat-inactivated fetal bovine serum (FBS), 1,000 units/ml penicillin, 1,000 μg/ml streptomycin, 0.25 μg/ml Amphotericin B, and 100 μg/ml zeocin unless otherwise stated.
ISRE-luciferase assay. THP-1 Lucia ISG cells were resuspended in low-serum growth media (2% FBS) at a density of 5×10^5 cells/ml and treated with test article or vehicle (DMSO). 50 μL of cells were seeded into each well of a 384-well white greiner plates and incubated for 24 hours. To evaluate expression of the luciferase reporter, 30 μl of Quanti-luc (Invivogen) detection reagent was added to each well and luminescence was read using an Envision plate reader (Perkin Elmer) set with an integration time of 0.1 seconds.
What is called EC50 is the concentration that produces a half-maximal response. The low end stands for greater potency, the high end for weaker potency. As for `COC(=O)c1cc(C#N)c(Cl)cc1NC(=O)c1ccc(-c2cn[nH]c2)nn1` [Compound 68], the EC50 is below 900 nM. With `C#Cc1cc(NC(=O)c2ccc(-n3ccnc3)nn2)c(C(=O)OCCN2CCOCC2)cc1F` [Compound 103], the EC50 was below 900 nM. To `C#Cc1cc(NC(=O)c2ccc(-n3ccnc3)nn2)c(C(=O)O)nc1Cl` [Compound 77] belongs below 900 nM. In turn, `O=C(Nc1cc(Cl)c(F)cc1C(=O)O)c1ccc(-c2cn[nH]c2)nn1` [Compound 67] gave an EC50 above 1000 nM. In the case of `COC(=O)c1cc(F)c(F)cc1NC(=O)c1ccc(-c2c[nH]nn2)nn1` [Compound 15] it was below 900 nM.

`COC(=O)c1cc(F)c(Cl)cc1NC(=O)c1ccc(-c2cn[nH]c2)nn1` [Compound 69] had an EC50 below 900 nM. To `C#Cc1cc(NC(=O)c2ccc(-n3ccnc3)nn2)c(C(=O)NCCO)nc1Cl` [Compound 105] belongs above 1000 nM; to `COC(=O)c1cc(Cl)c(Cl)cc1NC(=O)c1nnc(-n2ccnc2)cc1CN` [Compound 24], below 900 nM. To `COC(=O)c1cc(F)c(F)cc1NC(=O)c1nnc(-n2ccnc2)cc1CN` [Compound 2, methyl 2-(4-(aminomethyl)-6-(1H-imidazol-1-yl)pyridazine-3-carboxamido)-4,5-difluorobenzoate] belongs above 1000 nM; to `O=C(Nc1cc(Cl)c(Cl)nc1C(=O)O)c1ccc(-c2cn[nH]c2)nn1` [Compound 52], below 900 nM; to `COC(=O)c1cc(F)c(F)cc1NC(=O)c1nnc(-n2ccnc2)cc1CO` [Compound 7], below 900 nM. To `COC(=O)c1cc(Cl)c(F)cc1NC(=O)c1ccc(-c2cn[nH]c2)nn1` [Compound 57] belongs below 900 nM; to `O=C(Nc1cc(F)c(F)cc1C(=O)O)c1ccc(-c2cccnc2)nn1` [Compound 21], above 1000 nM; to `CS(=O)(=O)NCCNc1cc(C(=O)Nc2cc(F)c(F)cc2C(=O)O)nnc1-n1ccnc1` [Compound 6], above 1000 nM. Turning to `COC(=O)c1cc(Cl)c(Cl)cc1NC(=O)c1ccc(-c2c[nH]nn2)nn1` [Compound 50], the EC50 was below 900 nM. In the case of `O=C(Nc1cc(F)c(Cl)cc1C(=O)O)c1ccc(-c2cn[nH]c2)nn1` [Compound 66] it was above 1000 nM. To `O=C(Nc1cc(Cl)c(F)cc1C(=O)O)c1ccc(-c2cnsc2)nn1` [Compound 29] belongs below 900 nM. To `COC(=O)c1cc(C#N)c(Cl)cc1NC(=O)c1ccc(-c2c[nH]nn2)nn1` [Compound 30] belongs below 900 nM.

Take `COC(=O)c1cc(F)c(F)cc1NC(=O)c1ccc(CO)nn1` [Compound 17]: the EC50 was below 3000 nM. To `N#Cc1cc(C(=O)O)c(NC(=O)c2ccc(-c3c[nH]nn3)nn2)cc1Cl` [Compound 72] belongs above 20000 nM; to `COC(=O)c1cc(F)c(F)cc1NC(=O)c1nnc(-n2ccnc2)cc1C` [Compound 43], above 1000 nM; to `C#Cc1cc(NC(=O)c2ccc(-n3ccnc3)nn2)c(C(=O)OC(OC(=O)C(C)C)C(C)C)cc1F` (centres unmarked) [Compound 94], below 900 nM. Take `COC(=O)c1cc(Cl)c(Cl)cc1NC(=O)c1ccc(-c2nn(C)cc2C#N)nn1` [Compound 73]: the EC50 was above 20000 nM. `COC(=O)c1cc(C#N)c(C#N)cc1NC(=O)c1ccc(-c2c(C#N)cnn2C)nn1` [Compound 71] came in with an EC50 above 20000 nM. In the case of `COC(=O)c1cc(F)c(F)cc1NC(=O)c1ccc(-n2ccnc2CO)nn1` [Compound 4] it was below 3000 nM. The molecule `C#Cc1cc(NC(=O)c2ccc(-c3ccncc3)nn2)c(C(=O)O)cc1F` [Compound 1, lithium 4-ethynyl-5-fluoro-2-(6-(pyridin-4-yl)pyridazine-3-carboxamido) benzoate] came in with an EC50 below 900 nM. `C#Cc1cc(NC(=O)c2ccc(-c3cn[nH]c3)nn2)c(-c2nn[nH]n2)cc1F` [Compound 84] gave an EC50 above 1000 nM.

With `Nc1n[nH]cc1-c1ccc(C(=O)Nc2cc(F)c(F)cc2C(=O)O)nn1` [Compound 14], the EC50 is above 1000 nM. `COC(=O)c1cc(Cl)c(Cl)cc1NC(=O)c1ccc(N)nn1` [Compound 18] yielded an EC50 above 1000 nM.

Regarding `C#Cc1cc(NC(=O)c2ncc(-c3cn[nH]c3)cn2)c(C(=O)OC)cc1F` [Compound 56], the EC50 was above 20000 nM.

In the case of `C#Cc1cc(NC(=O)c2ccc(-n3ccnc3)nn2)c(C(=O)O)cc1F` [Compound 79], the EC50 is below 900 nM.

With `C#Cc1cc(NC(=O)c2ccc(-n3ccnc3)nn2)c(C(=O)O)cc1C#N` [Compound 100], the EC50 was below 3000 nM. To `COC(=O)c1cc(F)c(F)cc1NC(=O)c1cc(NCc2ccc(OC)cc2)cnn1` [Compound 59] belongs below 900 nM. In the case of `COC(=O)c1cc(Cl)c(OC)cc1NC(=O)c1cc(N)ncn1` [Compound 12] it was above 1000 nM; in that of `COC(=O)c1cc(Cl)c(Cl)cc1NC(=O)c1cc(CNC(N)=O)c(-n2ccnc2)nn1` [Compound 48], above 1000 nM. To `NC(=O)c1ccc(C(=O)Nc2cc(F)c(F)cc2C(=O)O)cn1` [Compound 13] belongs above 20000 nM; to `COC(=O)c1cc(Cl)c(Cl)cc1NC(=O)c1nc(-c2cn[nH]c2)no1` [Compound 37], below 3000 nM. `O=C(Nc1cc(F)c(F)cc1C(=O)O)c1ccc(-c2cn[nH]c2)nn1` [Compound 63]: the EC50 was above 1000 nM.

`COC(=O)c1cc(Cl)c(Cl)cc1NC(=O)c1cc(CN)c(-n2ccnc2)nn1` [Compound 26] returned an EC50 below 900 nM. Regarding `COC(=O)c1cc(F)c(F)cc1NC(=O)c1cc(N)cnn1` [Compound 20], the EC50 is below 900 nM.

Molecule `COC(=O)c1cc(C#N)c(Cl)cc1NC(=O)c1ccc(-c2c(Br)cnn2C)nn1` [Compound 27] showed a concentration giving a half-maximal response (EC50) above 20000 nM. To `C#Cc1cc(NC(=O)c2cnc(-c3cn[nH]c3)cn2)c(C(=O)OC)cc1F` [Compound 55] belongs above 20000 nM; to `C#Cc1cc(NC(=O)c2ccc(-n3ccnc3)nn2)c(C(=O)NCCO)cc1F` [Compound 106], above 20000 nM. In the case of `COC(=O)c1cc(F)c(F)cc1NC(=O)c1cc(C(N)=O)cnn1` [Compound 16] it was above 1000 nM; in that of `O=C(Nc1cc(Cl)c(F)cc1C(=O)O)c1ccc(-c2ccns2)nn1` [Compound 31], below 900 nM. In the case of `COC(=O)c1cc(Cl)c(Cl)cc1NC(=O)c1cn(-c2cnn(C(=O)OC(C)(C)C)c2)nn1` [Compound 22] it was above 1000 nM; in that of `C#Cc1cc(NC(=O)c2ccc(-n3ccnc3)nn2)c(C(=O)OC(C)OC(=O)OCC)nc1Cl` (centres unmarked) [Compound 102], below 900 nM. As for `C#Cc1cc2nc(-c3ccc(-c4ccncc4)nn3)oc(=O)c2cc1F` [Compound 3, 7-ethynyl-6-fluoro-2-(6-(pyridin-4-yl)pyridazin-3-yl)-4H-benzo[d][1,3]oxazin-4-one], the EC50 was below 900 nM. Regarding `C#Cc1cc(NC(=O)c2ccc(-c3cn[nH]c3)nn2)c(C(=O)O)cc1F` [Compound 46], the EC50 was above 1000 nM. As for `C#Cc1cc(NC(=O)c2ccc(-n3ccnc3)nn2)c(C(=O)O)cc1Cl` [Compound 81], the EC50 was below 900 nM. To `COC(=O)c1sc(C)cc1NC(=O)c1ccc(-n2ccnc2)nn1` [Compound 39] belongs above 1000 nM; to `C#Cc1cc(NC(=O)c2ccc(-n3ccnc3)nn2)c(C(=O)OCC)cc1F` [Compound 85], below 900 nM.

`COC(=O)c1cc(Cl)c(Cl)cc1NC(=O)c1ccc(-n2ccnc2)cn1` [Compound 25]: the EC50 is above 1000 nM.

(Values after patent US20220288065A1, “MONOCYCLIC AGONISTS OF STIMULATOR OF INTERFERON GENES STING” (The Scripps Research Institute, priority 2019, published 2022).)
